Experimental data: patent publication US9758557B2, “C1q peptides and uses thereof” (THE FEINSTEIN INSTITUTE FOR MEDICAL RESEARCH, priority 2013, dated 2017)

Assays:
R4A binding to dsDNA = experiment: DNA ELISA, inhibition of R4A binding to dsDNA by fluid phase C1q; conditions: immobilized dsDNA
Protocol: (§1) ELISAs—Costar half-volume 96-well plates (Corning, N.Y.) were used for C1q ELISAs and Immulon 2HB 96-well plates (Milford, Mass.) were used for DNA ELISAs. C1q was purchased from Comptech (Tyler, Tex.) and adsorbed to 96-well plate (50 μg/ml) Plates were blocked with 2% BSA in PBS for 1 hour at RT. R4A antibody or IgG2b control immunoglobulin (MPC-11 hybridoma, ATCC, Manassas, Va.) was added for 1 hour at RT at various concentrations of NaCl. Cytokine ELISA was performed according to manufacturer's protocol (BD Biosciences, San Diego, Calif.). C1q collagen-tail of C1q was prepared as described in [21].

R4A binding to C1q = experiment: ELISA, inhibition of R4A binding to C1q by peptide
Protocol: as §1

Substance: C1q: human complement C1q, purchased from Comptech
- inhibition of R4A binding to dsDNA (R4A binding to dsDNA): inhibited

Substance: DWEYS [reference compound]
- inhibition of R4A binding to C1q (R4A binding to C1q): inhibited

Substance: EADYG (fusion protein)
- inhibition of R4A binding to C1q (R4A binding to C1q): inhibited
